Assay results reported in patent publication US10730874B2 (Shire Human Genetic Therapies, Inc., priority 2018, dated 2020).

Target: human activated kallikrein enzyme (plasma kallikrein) (Homo sapiens (Human), UniProt P03952)
Assay: Inhibition of human activated plasma kallikrein, fluorogenic peptide substrate assay, 500 pM enzyme format
Assay type: biochemical
Conditions: 500 pM activated kallikrein enzyme, 300 uM Pro-Phe-Arg-7-amido-4-methylcoumarin substrate, 30 min preincubation, 10 min at RT; read-out: Primary Dose Response Assay: Average EC50
Procedure, shortened: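 Buffer 20 mM Tris pH 7.5, EDTA, NaCl, PEG-400, Triton X-100; 300 uM Pro-Phe-Arg-AMC; enzyme–inhibitor preincubation 30 min RT. Format one: 500 pM kallikrein, 10 min RT reaction; format two: 5 pM kallikrein, 18 h RT reaction. Fluorescence read at 460 nm (380 nm excitation).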

Chain of human activated kallikrein enzyme (plasma kallikrein) (P03952 391-638): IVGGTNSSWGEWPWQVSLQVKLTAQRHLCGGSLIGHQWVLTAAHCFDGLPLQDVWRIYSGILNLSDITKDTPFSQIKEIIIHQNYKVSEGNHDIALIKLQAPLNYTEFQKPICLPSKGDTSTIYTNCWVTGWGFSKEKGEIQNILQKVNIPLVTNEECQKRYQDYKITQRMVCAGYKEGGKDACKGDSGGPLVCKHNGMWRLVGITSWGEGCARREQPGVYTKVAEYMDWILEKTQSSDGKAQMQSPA
Chain of human activated kallikrein enzyme (plasma kallikrein) (P03952 20-390 partner): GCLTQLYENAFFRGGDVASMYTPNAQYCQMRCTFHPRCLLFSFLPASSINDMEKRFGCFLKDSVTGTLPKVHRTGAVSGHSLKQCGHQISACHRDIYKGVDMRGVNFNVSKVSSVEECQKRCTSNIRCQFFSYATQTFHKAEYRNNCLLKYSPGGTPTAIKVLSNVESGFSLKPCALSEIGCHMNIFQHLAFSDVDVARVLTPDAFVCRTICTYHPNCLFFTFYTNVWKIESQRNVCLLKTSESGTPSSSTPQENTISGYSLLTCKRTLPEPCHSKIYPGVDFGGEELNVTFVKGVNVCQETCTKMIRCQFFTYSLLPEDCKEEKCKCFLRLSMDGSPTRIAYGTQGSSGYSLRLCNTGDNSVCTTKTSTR

Structure (SMILES) | EC50 [nM]
O=C(NCc1ncn2ccc(Cl)c(F)c12)c1cn(Cc2cn3ncc(C4CC4)cc3n2)nn1 [Example I-217, N-((7-chloro-8-fluoroimidazo[1,5-a]pyridin-1-yl)methyl)-1-((7-cyclopropylimidazo[1,2-b]pyridazin-2-yl)methyl)-1H-1,2,3-triazole-4-carboxamide] | 1 to 10
O=C(NCc1ncn2cc(F)c(Cl)cc12)c1cn(Cc2cn3cc(C4CC4)ccc3n2)nn1 [Example I-277, N-((7-chloro-6-fluoroimidazo[1,5-a]pyridin-1-yl)methyl)-1-((6-cyclopropylimidazo[1,2-a]pyridin-2-yl)methyl)-1H-1,2,3-triazole-4-carboxamide] | 10 to 100
O=C(NCc1ncn2ccc(Cl)cc12)c1cnn(Cc2cn3c(Cl)c(C4CC4)ccc3n2)c1 [Example I-23, 1-((5-chloro-6-cyclopropylimidazo[1,2-a]pyridin-2-yl)methyl)-N-((7-chloroimidazo[1,5-a]pyridin-1-yl)methyl)-1H-pyrazole-4-carboxamide] | < 1
O=C(NCc1ncn2ccc(Cl)c(F)c12)c1nnn(Cc2cn3cc(C4CC4)ccc3n2)n1 [Example I-283, N-((7-chloro-8-fluoroimidazo[1,5-a]pyridin-1-yl)methyl)-2-((6-cyclopropylimidazo[1,2-a]pyridin-2-yl)methyl)-2H-tetrazole-5-carboxamide] | < 1
O=C(NCc1ncn2ccc(Cl)c(F)c12)c1cn(Cc2cn3cc(C4CC4)cc(N4CCOC(C(=O)O)C4)c3n2)nn1 (centres unmarked) [Example I-264, 4-(2-((4-(((7-chloro-8-fluoroimidazo[1,5-a]pyridin-1-yl)methyl)carbamoyl)-1H-1,2,3-triazol-1-yl)methyl)-6-cyclopropylimidazo[1,2-a]pyridin-8-yl)morpholine-2-carboxylic acid] | < 1
O=C(NCc1ncn2ccc(Cl)cc12)c1cnn(Cc2cn3cc(C4CC4)cc(C4(O)COC4)c3n2)c1 [Example I-122, N-((7-chloroimidazo[1,5-a]pyridin-1-yl)methyl)-1-((6-cyclopropyl-8-(3-hydroxyoxetan-3-yl)imidazo[1,2-a]pyridin-2-yl)methyl)-1H-pyrazole-4-carboxamide] | < 1
O=C(NCc1ncn2ccc(Cl)c(F)c12)c1cn(Cc2cn3nc(C4CC4)cc(N4CC(C(=O)O)C4)c3n2)nn1 [Example I-265b, 1-(2-((4-(((7-chloro-8-fluoroimidazo[1,5-a]pyridin-1-yl)methyl)carbamoyl)-1H-1,2,3-triazol-1-yl)methyl)-6-cyclopropylimidazo[1,2-b]pyridazin-8-yl)azetidine-3-carboxylic acid] | < 1
O=C(NCc1ncn2ccc(Cl)cc12)c1cnn(Cc2nc3ccc(C4CC4)cn3n2)c1 [Example I-6, N-((7-chloroimidazo[1,5-a]pyridin-1-yl)methyl)-1-((6-cyclopropyl-[1,2,4]triazolo[1,5-a]pyridin-2-yl)methyl)-1H-pyrazole-4-carboxamide] | 1 to 10
O=C(NCc1ncn2ccc(Cl)c(F)c12)c1cn(Cc2cn3cc(C4CC4)cc(C4(F)COC4)c3n2)nn1 [Example I-167, N-((7-chloro-8-fluoroimidazo[1,5-a]pyridin-1-yl)methyl)-1-((6-cyclopropyl-8-(3-fluorooxetan-3-yl)imidazo[1,2-a]pyridin-2-yl)methyl)-1H-1,2,3-triazole-4-carboxamide] | < 1
CC(C)=Cc1ccn2cc(Cn3cc(C(=O)NCc4ncn5ccc(Cl)cc45)cn3)nc2c1 [Example I-42, N-((7-chloroimidazo[1,5-a]pyridin-1-yl)methyl)-1-((7-(2-methylprop-1-en-1-yl)imidazo[1,2-a]pyridin-2-yl)methyl)-1H-pyrazole-4-carboxamide] | 10 to 100
O=C(NCc1ncn2ccc(Cl)c(F)c12)c1cn(Cc2cn3nccc(-n4cnnc4)c3n2)nn1 [Example I-294, 1-((8-(4H-1,2,4-triazol-4-yl)imidazo[1,2-b]pyridazin-2-yl)methyl)-N-((7-chloro-8-fluoroimidazo[1,5-a]pyridin-1-yl)methyl)-1H-1,2,3-triazole-4-carboxamide] | 10 to 100
